{
  "source": "patent US9493466B2",
  "about": "“Treatment of cancer with TOR kinase inhibitors” (Signal Pharmaceuticals, LLC, priority 2011, dated 2016)",
  "assay_type_in_all_cases": "cell-based",
  "key": {"HCC1937": {"test_system": "HCC1937", "assay": "Growth inhibition assay for breast cancer", "conditions": "HCC1937 (Basal, TN), 96 hours", "source_text": "(§1) Growth Inhibition Assay for Breast Cancer (BC) (Compound 1). All breast cancer cell lines were maintained and tested in appropriate culture media. The seeding density for each cell line was optimized to ensure assay linearity in 384-well plates.\n(§2) Increasing concentrations of Compound 1 were spotted via an acoustic dispenser (EDC ATS-100) into an empty 384-well plate. Compound 1 was spotted in a 10-point serial dilution fashion (3-fold dilution) in duplicate within the plate. The dimethyl sulfoxide (DMSO) concentration was kept constant for a final assay concentration of 0.1% DMSO. Plates were replicated for use against different cell lines and testing periods. After compound plate replication, all plates were sealed (Agilent ThermoLoc) and stored at −20° C. for up to 1 month. When ready for testing, plates were removed from the freezer, thawed, and unsealed just prior to the addition of the test cell.\n(§3) Prior to testing, cells were grown and expanded in culture flasks to provide sufficient amounts of starting material. Cells were then diluted to their desired densities and added directly to the Compound 1-spotted 384-well plates. Cells were allowed to grow for 96 hours at 37° C./5% CO2. At the time of setup (t0), initial cell number was assessed via a viability assay (Cell Titer-Glo) and read for luminescence. After 96 hours, cell viability of Compound 1-treated cells was assessed via Cell Titer-Glo and read for luminescence.\n(§4) Cell lines were assayed for growth inhibition by Compound 1 for at least two independent tests. All data was normalized and represented as a percentage of the DMSO-treated control cells. […] The potency of Compound 1 in different subtypes of breast cancer cell lines is shown in FIG. 7A, while the correlation of Compound 1 sensitivity to ER, HER, PIK3CA, and TP53 status is shown in FIG. 7B."}, "HCC70": {"test_system": "HCC70", "assay": "Growth inhibition assay for breast cancer", "conditions": "HCC70 (Basal, TN), 96 hours", "source_text": "as §1, §2, §3, §4"}, "MDA-MB-134-VI": {"test_system": "MDA-MB-134-VI", "assay": "Growth inhibition assay for breast cancer", "conditions": "MDA-MB-134-VI (Luminal, ER+), 96 hours", "source_text": "as §1, §2, §3, §4"}, "ZR-75-1": {"test_system": "ZR-75-1", "assay": "Growth inhibition assay for breast cancer", "conditions": "ZR-75-1 (Luminal, ER+), 96 hours", "source_text": "as §1, §2, §3, §4"}, "BT-549": {"test_system": "BT-549", "assay": "Growth inhibition assay for breast cancer", "conditions": "BT-549 (Basal, TN), 96 hours", "source_text": "as §1, §2, §3, §4"}, "MDA-MB-436": {"test_system": "MDA-MB-436", "assay": "Growth inhibition assay for breast cancer", "conditions": "MDA-MB-436 (Basal, TN), 96 hours", "source_text": "as §1, §2, §3, §4"}, "REC-1": {"test_system": "REC-1", "assay": "Apoptosis assay for NHL lines (Caspase 3/7-Glo)", "conditions": "REC-1, NHL MCL, 24 hours, n = 1", "description": "(§5) Apoptosis Assay for NHL Lines. Prior to testing, cells were grown and expanded in culture flasks to provide sufficient amounts of starting material. Cells were then diluted to their desired densities and added directly to compound-spotted 384-well plates. Cells were allowed to grow for 24 hours in 5% CO2 at 37° C. The apoptotic response was assessed by quantifying the activities of caspase 3 and caspase 7 (Caspase 3/7-Glo) in treated cells and control cells at the 24-hour time point. All data was normalized and represented as a value relative to the DMSO-treated cells. Results were then expressed as CalX, which is the minimum compound concentration required to double the levels of caspase 3/7 relative to those of the DMSO-treated cells during their treatment period."}, "KG-1": {"test_system": "KG-1", "assay": "Apoptosis assay for NHL lines (Caspase 3/7-Glo)", "conditions": "KG-1, Leukemia M-AML, 24 hours, n = 1", "description": "as §5"}, "JVM-13": {"test_system": "JVM-13", "assay": "Apoptosis assay for NHL lines (Caspase 3/7-Glo)", "conditions": "JVM-13, NHL MCL, 24 hours, n = 1", "description": "as §5"}, "OCI-LY-7": {"test_system": "OCI-LY-7", "assay": "Apoptosis assay for NHL lines (Caspase 3/7-Glo)", "conditions": "OCI-LY-7, NHL DLBCL, 24 hours, n = 1", "description": "as §5"}, "RIVA": {"test_system": "RIVA", "assay": "Apoptosis assay for NHL lines (Caspase 3/7-Glo)", "conditions": "NHL DLBCL, 24 hours, n = 1", "description": "as §5"}, "Farage": {"test_system": "Farage", "assay": "Apoptosis assay for NHL lines (Caspase 3/7-Glo)", "conditions": "NHL DLBCL, 24 hours, n = 1", "description": "as §5"}, "OCI-LY-3": {"test_system": "OCI-LY-3", "assay": "Apoptosis assay for NHL lines (Caspase 3/7-Glo)", "conditions": "OCI-LY-3, NHL DLBCL, 24 hours, n = 1", "description": "as §5"}, "KASUMI-1": {"test_system": "KASUMI-1", "assay": "Apoptosis assay for NHL lines (Caspase 3/7-Glo)", "conditions": "KASUMI-1, Leukemia M-AML, 24 hours, n = 1", "description": "as §5"}, "SU-DHL-10": {"test_system": "SU-DHL-10", "assay": "Apoptosis assay for NHL lines (Caspase 3/7-Glo)", "conditions": "SU-DHL-10, NHL DLBCL, 24 hours, n = 1", "description": "as §5"}, "SC-1": {"test_system": "SC-1", "assay": "Apoptosis assay for NHL lines (Caspase 3/7-Glo)", "conditions": "SC-1, NHL FL, 24 hours, n = 1", "description": "as §5"}, "WSU-FSCCL": {"test_system": "WSU-FSCCL", "assay": "Apoptosis assay for NHL lines (Caspase 3/7-Glo)", "conditions": "NHL FL, 24 hours, n = 1", "description": "as §5"}, "THP-1": {"test_system": "THP-1", "assay": "Apoptosis assay for NHL lines (Caspase 3/7-Glo)", "conditions": "THP-1, Leukemia M-AML, 24 hours, n = 1", "description": "as §5"}, "DB": {"test_system": "DB", "assay": "Apoptosis assay for NHL lines (Caspase 3/7-Glo)", "conditions": "NHL DLBCL, 24 hours, n = 1", "description": "as §5"}, "RC-K8": {"test_system": "RC-K8", "assay": "Apoptosis assay for NHL lines (Caspase 3/7-Glo)", "conditions": "RC-K8, NHL DLBCL, 24 hours, n = 1", "description": "as §5"}, "DOHH-2": {"test_system": "DOHH-2", "assay": "Apoptosis assay for NHL lines (Caspase 3/7-Glo)", "conditions": "DOHH-2, NHL FL, 24 hours, n = 1", "description": "as §5"}, "Mino": {"test_system": "Mino", "assay": "Apoptosis assay for NHL lines (Caspase 3/7-Glo)", "conditions": "NHL MCL, 24 hours, n = 1", "description": "as §5"}, "JVM-2": {"test_system": "JVM-2", "assay": "Apoptosis assay for NHL lines (Caspase 3/7-Glo)", "conditions": "JVM-2, NHL MCL, 24 hours, n = 1", "description": "as §5"}, "HT": {"test_system": "HT", "assay": "Apoptosis assay for NHL lines (Caspase 3/7-Glo)", "conditions": "NHL DLBCL, 24 hours, n = 1", "description": "as §5"}, "Pfeiffer": {"test_system": "Pfeiffer", "assay": "Apoptosis assay for NHL lines (Caspase 3/7-Glo)", "conditions": "NHL DLBCL, 24 hours, n = 1", "description": "as §5"}, "WSU-DLCL2": {"test_system": "WSU-DLCL2", "assay": "Apoptosis assay for NHL lines (Caspase 3/7-Glo)", "conditions": "WSU-DLCL2, NHL DLBCL, 24 hours, n = 1", "description": "as §5"}},
  "data": [
    {"smiles": "CO[C@H]1CC[C@H](N2C(=O)CNc3ncc(-c4ccc(C(C)(C)O)nc4)nc32)CC1", "note": "[Compound 1, 7-(6-(2-hydroxypropan-2-yl)pyridin-3-yl)-1-((1r,4r)-4-methoxycyclohexyl)-3,4-dihydropyrazino-[2,3-b]pyrazin-2(1H)-one]", "values": [
      {"measurement": "GI50", "setting": "HCC1937", "result": 0.697, "unit": "µM"},
      {"measurement": "GI50", "setting": "HCC70", "result": 0.172, "unit": "µM"},
      {"measurement": "GI50", "setting": "MDA-MB-134-VI", "result": 0.101, "unit": "µM"},
      {"measurement": "GI50", "setting": "ZR-75-1", "result": 0.0321, "unit": "µM"},
      {"measurement": "GI50", "setting": "BT-549", "result": 0.149, "unit": "µM"},
      {"measurement": "GI50", "setting": "MDA-MB-436", "result": 2.99, "unit": "µM"},
      {"measurement": "CalX (minimum concentration to double caspase 3/7)", "setting": "REC-1", "result": 0.79},
      {"measurement": "CalX (minimum concentration to double caspase 3/7)", "setting": "KG-1", "result": 10},
      {"measurement": "Apoptotic", "setting": "JVM-13", "result": "N/Y"},
      {"measurement": "CalX (minimum concentration to double caspase 3/7)", "setting": "JVM-13", "result": 4.27},
      {"measurement": "CalX (minimum concentration to double caspase 3/7)", "setting": "OCI-LY-7", "result": 0.07},
      {"measurement": "Apoptotic", "setting": "RIVA", "result": "N/Y"},
      {"measurement": "CalX (minimum concentration to double caspase 3/7)", "setting": "RIVA", "result": 3.84},
      {"measurement": "CalX (minimum concentration to double caspase 3/7)", "setting": "Farage", "result": 0.47},
      {"measurement": "CalX (minimum concentration to double caspase 3/7)", "setting": "OCI-LY-3", "result": 0.67},
      {"measurement": "Apoptotic", "setting": "KASUMI-1", "result": "N/Y"},
      {"measurement": "CalX (minimum concentration to double caspase 3/7)", "setting": "KASUMI-1", "result": 6.52},
      {"measurement": "CalX (minimum concentration to double caspase 3/7)", "setting": "SU-DHL-10", "result": 0.54},
      {"measurement": "CalX (minimum concentration to double caspase 3/7)", "setting": "SC-1", "result": 10},
      {"measurement": "CalX (minimum concentration to double caspase 3/7)", "setting": "WSU-FSCCL", "result": 0.16},
      {"measurement": "Apoptotic", "setting": "THP-1", "result": "N/Y"},
      {"measurement": "CalX (minimum concentration to double caspase 3/7)", "setting": "THP-1", "result": 7.57},
      {"measurement": "Apoptotic", "setting": "DB", "result": "N/Y"},
      {"measurement": "CalX (minimum concentration to double caspase 3/7)", "setting": "DB", "result": 5.44},
      {"measurement": "Apoptotic", "setting": "RC-K8", "result": "N/Y"},
      {"measurement": "CalX (minimum concentration to double caspase 3/7)", "setting": "RC-K8", "result": 6.51},
      {"measurement": "CalX (minimum concentration to double caspase 3/7)", "setting": "DOHH-2", "result": 0.14},
      {"measurement": "CalX (minimum concentration to double caspase 3/7)", "setting": "Mino", "result": 0.53},
      {"measurement": "Apoptotic", "setting": "JVM-2", "result": "N/Y"},
      {"measurement": "CalX (minimum concentration to double caspase 3/7)", "setting": "JVM-2", "result": 3.2},
      {"measurement": "Apoptotic", "setting": "HT", "result": "N/Y"},
      {"measurement": "CalX (minimum concentration to double caspase 3/7)", "setting": "HT", "result": 5.62},
      {"measurement": "CalX (minimum concentration to double caspase 3/7)", "setting": "Pfeiffer", "result": 10},
      {"measurement": "CalX (minimum concentration to double caspase 3/7)", "setting": "WSU-DLCL2", "result": 0.19}
    ]}
  ]
}
